# Experimental data from the NIST ThermoML archive (doi:10.1021/je800579j).
# ± gives the expanded uncertainty stated by the source.
# Tests used:
# [1] = Liquid, Pycnometric method
# [2] = refractive index (Na D-line) (dimensionless); details: Liquid, Standard Abbe refractometry
# [3] = xn = mol fraction of the nth substance listed; details: Liquid, Pycnometric method
# [4] = refractive index (Na D-line) (dimensionless); xn = mol fraction of the nth substance listed; details: Liquid, Standard Abbe refractometry
SMILES,mass density ([1]; 288.15 K) [kg/m3],mass density ([1]; 293.15 K) [kg/m3],mass density ([1]; 298.15 K) [kg/m3],mass density ([1]; 303.15 K) [kg/m3],mass density ([1]; 308.15 K) [kg/m3],mass density ([1]; 313.15 K) [kg/m3],mass density ([1]; 318.15 K) [kg/m3],refractive index ([2]; 288.15 K),refractive index ([2]; 293.15 K),refractive index ([2]; 298.15 K),refractive index ([2]; 303.15 K),refractive index ([2]; 308.15 K),refractive index ([2]; 313.15 K),refractive index ([2]; 318.15 K),"mass density ([3]; 288.15 K, x1 = 1) [kg/m3]","mass density ([3]; 293.15 K, x1 = 1) [kg/m3]","mass density ([3]; 298.15 K, x1 = 1) [kg/m3]","mass density ([3]; 303.15 K, x1 = 1) [kg/m3]","mass density ([3]; 308.15 K, x1 = 1) [kg/m3]","mass density ([3]; 313.15 K, x1 = 1) [kg/m3]",further results
"Cc1ccccc1C [1,2-dimethylbenzene]",884.09 ± 0.67,879.83 ± 0.66,875.57 ± 0.67,871.31 ± 0.67,867.05 ± 0.68,862.79 ± 0.68,858.53 ± 0.69,1.5083 ± 0.0007,1.5055 ± 0.0007,1.5029 ± 0.0007,1.5002 ± 0.0007,1.4975 ± 0.0007,1.4948 ± 0.0007,1.4921 ± 0.0007,,,,,,,
"Cc1cc(C)cc(C)c1 [1,3,5-trimethylbenzene]",869.28 ± 0.63,865.37 ± 0.63,861.45 ± 0.63,857.54 ± 0.64,853.63 ± 0.65,849.71 ± 0.65,845.8 ± 0.66,1.502 ± 0.0007,1.4995 ± 0.0007,1.4969 ± 0.0007,1.4944 ± 0.0007,1.4918 ± 0.0007,1.4893 ± 0.0007,1.4868 ± 0.0007,,,,,,,
"Cc1cccc(C)c1 [1,3-dimethylbenzene]",868.59 ± 0.67,864.31 ± 0.66,860.02 ± 0.67,855.74 ± 0.67,851.45 ± 0.68,847.17 ± 0.68,842.88 ± 0.69,1.4999 ± 0.0006,1.4974 ± 0.0007,1.4948 ± 0.0007,1.4922 ± 0.0007,1.4896 ± 0.0007,1.487 ± 0.0007,1.4844 ± 0.0007,,,,,,,
"Cc1ccc(C)cc1 [1,4-dimethylbenzene]",865.52 ± 0.67,861.17 ± 0.67,856.82 ± 0.67,852.47 ± 0.68,848.12 ± 0.68,843.77 ± 0.69,839.42 ± 0.7,1.4985 ± 0.0007,1.4959 ± 0.0007,1.4933 ± 0.0007,1.4907 ± 0.0007,1.4881 ± 0.0007,1.4855 ± 0.0007,1.483 ± 0.0006,,,,,,,
"C1COCCO1 [1,4-dioxane]",1039.23 ± 0.87,1033.59 ± 0.87,1027.95 ± 0.87,1022.32 ± 0.88,1016.68 ± 0.88,1011.05 ± 0.89,1005.42 ± 0.89,1.4245 ± 0.0006,1.4224 ± 0.0006,1.4203 ± 0.0006,1.4182 ± 0.0006,1.4161 ± 0.0006,1.4139 ± 0.0006,1.4117 ± 0.0006,,,,,,,
"C1COCCO1 [1,4-dioxane] + Cc1cc(C)cc(C)c1",,,,,,,,,,,,,,,1039.23 ± 0.87,1033.59 ± 0.87,1027.95 ± 0.87,1022.32 ± 0.88,1016.68 ± 0.88,1011.05 ± 0.89,"mass density ([3]; 318.15 K, x1 = 1): 1005.42 ± 0.89 kg/m3; refractive index ([4]; 288.15 K, x1 = 1): 1.4245 ± 0.0006; refractive index ([4]; 293.15 K, x1 = 1): 1.4224 ± 0.0006; refractive index ([4]; 298.15 K, x1 = 1): 1.4203 ± 0.0006; refractive index ([4]; 303.15 K, x1 = 1): 1.4182 ± 0.0006; refractive index ([4]; 308.15 K, x1 = 1): 1.4161 ± 0.0006; refractive index ([4]; 313.15 K, x1 = 1): 1.4139 ± 0.0006; refractive index ([4]; 318.15 K, x1 = 1): 1.4117 ± 0.0006"
"C1COCCO1 [1,4-dioxane] + Cc1ccc(C)cc1",,,,,,,,,,,,,,,1039.23 ± 0.87,1033.59 ± 0.87,1027.95 ± 0.87,1022.32 ± 0.88,1016.68 ± 0.88,1011.05 ± 0.89,"mass density ([3]; 318.15 K, x1 = 1): 1005.42 ± 0.89 kg/m3; refractive index ([4]; 288.15 K, x1 = 1): 1.4245 ± 0.0006; refractive index ([4]; 293.15 K, x1 = 1): 1.4224 ± 0.0006; refractive index ([4]; 298.15 K, x1 = 1): 1.4203 ± 0.0006; refractive index ([4]; 303.15 K, x1 = 1): 1.4182 ± 0.0006; refractive index ([4]; 308.15 K, x1 = 1): 1.4161 ± 0.0006; refractive index ([4]; 313.15 K, x1 = 1): 1.4139 ± 0.0006; refractive index ([4]; 318.15 K, x1 = 1): 1.4117 ± 0.0006"
"C1COCCO1 [1,4-dioxane] + Cc1cccc(C)c1",,,,,,,,,,,,,,,1039.23 ± 0.87,1033.59 ± 0.87,1027.95 ± 0.87,1022.32 ± 0.88,1016.68 ± 0.88,1011.05 ± 0.89,"mass density ([3]; 318.15 K, x1 = 1): 1005.42 ± 0.89 kg/m3; refractive index ([4]; 288.15 K, x1 = 1): 1.4245 ± 0.0006; refractive index ([4]; 293.15 K, x1 = 1): 1.4224 ± 0.0006; refractive index ([4]; 298.15 K, x1 = 1): 1.4203 ± 0.0006; refractive index ([4]; 303.15 K, x1 = 1): 1.4182 ± 0.0006; refractive index ([4]; 308.15 K, x1 = 1): 1.4161 ± 0.0006; refractive index ([4]; 313.15 K, x1 = 1): 1.4139 ± 0.0006; refractive index ([4]; 318.15 K, x1 = 1): 1.4117 ± 0.0006"
"C1COCCO1 [1,4-dioxane] + Cc1ccccc1C",,,,,,,,,,,,,,,1039.23 ± 0.87,1033.59 ± 0.87,1027.95 ± 0.87,1022.32 ± 0.88,1016.68 ± 0.88,1011.05 ± 0.89,"mass density ([3]; 318.15 K, x1 = 1): 1005.42 ± 0.89 kg/m3; refractive index ([4]; 288.15 K, x1 = 1): 1.4245 ± 0.0006; refractive index ([4]; 293.15 K, x1 = 1): 1.4224 ± 0.0006; refractive index ([4]; 298.15 K, x1 = 1): 1.4203 ± 0.0006; refractive index ([4]; 303.15 K, x1 = 1): 1.4182 ± 0.0006; refractive index ([4]; 308.15 K, x1 = 1): 1.4161 ± 0.0006; refractive index ([4]; 313.15 K, x1 = 1): 1.4139 ± 0.0006; refractive index ([4]; 318.15 K, x1 = 1): 1.4117 ± 0.0006"
c1ccccc1 [benzene],884.3 ± 0.81,878.95 ± 0.8,873.61 ± 0.8,868.26 ± 0.81,862.9 ± 0.81,857.56 ± 0.82,852.23 ± 0.82,1.5042 ± 0.0007,1.5011 ± 0.0007,1.498 ± 0.0007,1.4949 ± 0.0007,1.4918 ± 0.0007,1.4887 ± 0.0007,1.4856 ± 0.0007,,,,,,,
c1ccccc1 [benzene] + C1COCCO1,,,,,,,,,,,,,,,,,,,,,"mass density ([3]; 288.15 K, x2 = 0): 884.3 ± 0.81 kg/m3; mass density ([3]; 293.15 K, x2 = 0): 878.95 ± 0.8 kg/m3; mass density ([3]; 298.15 K, x2 = 0): 873.61 ± 0.8 kg/m3; mass density ([3]; 303.15 K, x2 = 0): 868.26 ± 0.81 kg/m3; mass density ([3]; 308.15 K, x2 = 0): 862.9 ± 0.81 kg/m3; mass density ([3]; 313.15 K, x2 = 0): 857.56 ± 0.82 kg/m3; mass density ([3]; 318.15 K, x2 = 0): 852.23 ± 0.82 kg/m3; refractive index ([4]; 288.15 K, x2 = 0): 1.5042 ± 0.0007; refractive index ([4]; 293.15 K, x2 = 0): 1.5011 ± 0.0007; refractive index ([4]; 298.15 K, x2 = 0): 1.498 ± 0.0007; refractive index ([4]; 303.15 K, x2 = 0): 1.4949 ± 0.0007; refractive index ([4]; 308.15 K, x2 = 0): 1.4918 ± 0.0007; refractive index ([4]; 313.15 K, x2 = 0): 1.4887 ± 0.0007; refractive index ([4]; 318.15 K, x2 = 0): 1.4856 ± 0.0007"
Cc1ccccc1 [toluene],871.79 ± 0.72,867.08 ± 0.71,862.36 ± 0.72,857.64 ± 0.72,852.93 ± 0.73,848.21 ± 0.73,843.49 ± 0.74,1.4998 ± 0.0007,1.497 ± 0.0007,1.4942 ± 0.0007,1.4913 ± 0.0007,1.4884 ± 0.0007,1.4855 ± 0.0007,1.4826 ± 0.0007,,,,,,,
Cc1ccccc1 [toluene] + C1COCCO1,,,,,,,,,,,,,,,,,,,,,"mass density ([3]; 288.15 K, x2 = 0): 871.79 ± 0.72 kg/m3; mass density ([3]; 293.15 K, x2 = 0): 867.08 ± 0.71 kg/m3; mass density ([3]; 298.15 K, x2 = 0): 862.36 ± 0.72 kg/m3; mass density ([3]; 303.15 K, x2 = 0): 857.64 ± 0.72 kg/m3; mass density ([3]; 308.15 K, x2 = 0): 852.93 ± 0.73 kg/m3; mass density ([3]; 313.15 K, x2 = 0): 848.21 ± 0.73 kg/m3; mass density ([3]; 318.15 K, x2 = 0): 843.49 ± 0.74 kg/m3; refractive index ([4]; 288.15 K, x2 = 0): 1.4998 ± 0.0007; refractive index ([4]; 293.15 K, x2 = 0): 1.497 ± 0.0007; refractive index ([4]; 298.15 K, x2 = 0): 1.4942 ± 0.0007; refractive index ([4]; 303.15 K, x2 = 0): 1.4913 ± 0.0007; refractive index ([4]; 308.15 K, x2 = 0): 1.4884 ± 0.0007; refractive index ([4]; 313.15 K, x2 = 0): 1.4855 ± 0.0007; refractive index ([4]; 318.15 K, x2 = 0): 1.4826 ± 0.0007"
